Reference: patent EP0000644A2, “Lower cycloalkyl substituted-benzene derivatives, the preparation thereof and their pharmaceutical compositions” (FUJISAWA PHARMACEUTICAL CO., LTD., priority 1977, dated 1979)
≈ marks a conversion by molar mass, not a printed value. Counter-ions that a name gives are not always drawn. Like-named read-outs stand apart in the source and are kept apart here.

How the values were obtained:
strip of stomach fundus = assay: Contraction of isolated stomach fundus strip induced by arachidonic acid; assay type: cell-based, Sprague-Dawley rats; conditions: Rattus norvegicus, 0.25 h
Description: The stomach was removed from Sprague-Dawley rats, weighing about 180 g., after the animals were fasted overnight. A strip of stomach fundus was suspended under initial tension of 0.6 g. in a 10 ml. organ bath containing Tyrode solution. Arachidonic acid (1.0 x 10^-5 g/ml.) was employed as the spasmogen. Several doses of the test compound were added to the individnal bath fluid 15 minutes before the addition of arachidonic acid. The value of contraction induced by arachidonic acid was measured and plotted as a dose-activity curve. The ED50 value of each test compound was obtained by interpolation from the dose-activity curve.

erythema = assay: Ultra-violet erythema test, oral administration; assay type: in vivo, Hartley rats; conditions: ten animals per group; oral suspension, half one hour before and half just after ultra-violet radiation; erythema scored two hours later; effective when total of 3 points below 1.5; read-out: Score
Description: Ten male 5 week old Hartley rats, each weighing about 350 g., were used per group. The backs of each animal were depilated 24 hours before the test. An adhesive tape with 3 small holes of 9 mm. diameter was placed on the depilated skin and then the animal was exposed to ultra-violet radiation from an ultra-violet lamp (500 W, manufactured by Engelhard Hanovia Inc.) at a distance of 13 cm. for 80 seconds. Two hours later, the degree of erythema was estimated on the basis of the following scores: • 1.0 : eryhthema with clear border, • 0.5 : erythema with unclear border, • 0.0 : scarcely any erythema.
The valuation was determined as follows:
Each dosage of the test compound was administered orally in a suspension form in 20 ml. of 0.5% aqueous methyl cellosolve aqueous solution. Half of the test sample was administered one hour before the radiation and the remaining half of the test solution was administered just after radiation.

[1] = arachidonic acid 1.0 x 10^-5 g/ml. as spasmogen, test compound added 15 minutes before, interpolated from dose-activity curve, read-out: ED50 (the source's name)

| IC50 (strip of stomach fundus; [1]) [µg/mL] | SMILES | minimal effective dose (erythema) [mg/kg] | IC50 (strip of stomach fundus; read-out: ED50) [µg/mL] |
| --- | --- | --- | --- |
| 0.084 | COCC(C(=O)O)c1ccc(C2CCCCC2)c(Cl)c1 (centres unmarked) [4-(3), sodium 2-(3-chloro-4-cyclohexylphenyl)-3-methoxypropionatc] | 8 to 10 |  |
| 0.5 (≈ 1.77 µM) | COCC(CO)c1ccc(C2CCCCC2)c(Cl)c1 (centres unmarked) [7-(2), 2-(3-chloro-4-cyclohexylphenyl)-3-methoxypropanol] |  |  |
|  | CCCOCC(C(=O)[O-])c1ccc(C2CCCCC2)cc1.[Na+] (centres unmarked) [12-(2), sodium 2-(4-cyclohexylphenyl)-3-propoxypropionate] | 8 to 10 | 2.6 |
| 22 (≈ 70.6 µM) | CS(=O)(=O)NCC(CO)c1ccc(C2CCCCC2)cc1 (centres unmarked) [14-(3), 2-(4-cyclohexylphenyl)-3-mesylaminopropanol] | 8 to 10 |  |
| 3.2 (≈ 11.7 µM) | CC(=O)CC(C(=O)O)c1ccc(C2CCCCC2)cc1 (centres unmarked) [15-(2), 2-(4-cyclohexylphenyl)-3-acetylpropionic acid] | 8 to 10 |  |
|  | CC(=O)CC(CO)c1ccc(C2CCCCC2)cc1 (centres unmarked) [16-(3), 2-(4-cyclohexylphenyl)-3-acetylpropanol] | 8 to 10 |  |
| 1.3 (≈ 4.96 µM) | COCC(C(=O)O)c1ccc(C2CCCCC2)cc1 (centres unmarked) [17-(2), 2-(4 cyclohexylphenyl)-3-methoxypropionic acid] | 8 to 10 |  |
|  | CNCC(CO)c1ccc(C2CCCCC2)cc1 (centres unmarked) [21-(2), 2-(4-cyclohcxylphenyl)-3-mcthylaminopropanol hydrochloride] | 8 to 10 |  |
| 4.2 (≈ 13.6 µM) | CC(=O)CC(C(=O)O)c1ccc(C2CCCCC2)c(Cl)c1 (centres unmarked) [24-(2), 2-(3-chloro-4-cyclohexylphenyl)-3-acetylpropionic acid] | 8 to 10 |  |
| 2.6 (≈ 10.5 µM) | O=C(O)C(CO)c1ccc(C2CCCCC2)cc1 (centres unmarked) [Example 2, p-cyclohexyltropic acid] | 8 to 10 |  |
| 1.2 (≈ 4.46 µM) | OCC(CO)c1ccc(C2CCCCC2)c(Cl)c1 [Example 7-(1), 2-(3-chloro-4-cyclohexylphenyl)propane-1,3-diol] | 8 to 10 |  |
|  | CC(=O)OCC(COC(C)=O)c1ccc(C2CCCCC2)c(Cl)c1 [Example 8, 1,3-diacetoxy-2-(3-chloro-4-cyclohexylphenyl)propane] | 8 to 10 |  |
| 0.26 (≈ 0.919 µM) | O=C(O)C(CO)c1ccc(C2CCCCC2)c(Cl)c1 (centres unmarked) [Example 9, m-chloro-p-cyclohexyl tropic acid] | 8 to 10 |  |
|  | COC(=O)C(CN1CCCCC1)c1ccc(C2CCCCC2)c(Cl)c1 (centres unmarked) [Example 11, methyl 2-(3-chloro-4-cyclohexylphcnyl)-3-piperidinopropionate hydrochloride] | 8 to 10 |  |
|  | COCC(COC(=O)COc1ccc(Cl)cc1)c1ccc(C2CCCCC2)cc1 (centres unmarked) [Example 20, 1-(4-chlorophenoxyacetoxy)-2-(4-cyclohexylphenyl)-3-methoxypropane] | 8 to 10 |  |
|  | CNCC(C(=O)O)c1ccc(C2CCCCC2)cc1 (centres unmarked) [Example 22, sodium 2-(4-cyclohexylphenyl)-3-methylaminopropionate monohydrate] | 8 to 10 |  |
|  | COCC(CO)c1ccc(C2CCCCC2)c(Cl)c1 (centres unmarked) [Example 23, 2-(3-chloro-4-cyclohexylphenyl)-3-methoxypropanol] | 8 to 10 |  |
|  | CC(=O)Oc1ccccc1C(=O)O [aspirin, reference compound] |  | 3.1 (≈ 17.2 µM) |

| SMILES | IC50 (strip of stomach fundus; [1]) [µg/mL] | minimal effective dose (erythema) [mg/kg] | IC50 (strip of stomach fundus; read-out: ED50) [µg/mL] |
| --- | --- | --- | --- |
| COC(=O)C(COC(C)=O)c1ccc(C2CCCCC2)c(Cl)c1 (centres unmarked) [5-(3), methyl 3-acetoxy-2-(3-chloro-4-cyclohexylphenyl) propionate] | 0.12 (≈ 0.354 µM) | 8 to 10 |  |
